Data taken from PubChem BioAssay (NCI).
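48-hour exposure; five concentrations; linearly interpolated endpoints. GI50 is the concentration that inhibits growth by half. The concentration for full growth arrest is given as TGI.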

Key:
Test in all cases: NCI-60 cell line screen, 48 h
A549 NSCLC = tested on: A549 NSCLC
HL-60(TB) leukemia = tested on: HL-60(TB) leukemia
KM12 colon = tested on: KM12 colon
M14 melanoma = tested on: M14 melanoma
MALME-3M melanoma = tested on: MALME-3M melanoma
NCI-H460 lung = tested on: NCI-H460 lung
RPMI-8226 leukemia = tested on: RPMI-8226 leukemia
SN12C renal = tested on: SN12C renal
SNB-19 CNS = tested on: SNB-19 CNS
EKVX NSCLC = tested on: EKVX NSCLC

Row | Compound | GI50 (A549 NSCLC) [µM] | TGI (A549 NSCLC) [µM] | GI50 (HL-60(TB) leukemia) [µM] | TGI (HL-60(TB) leukemia) [µM] | GI50 (KM12 colon) [µM] | TGI (KM12 colon) [µM] | GI50 (M14 melanoma) [µM] | TGI (M14 melanoma) [µM] | GI50 (MALME-3M melanoma) [µM] | TGI (MALME-3M melanoma) [µM] | GI50 (NCI-H460 lung) [µM] | TGI (NCI-H460 lung) [µM] | GI50 (RPMI-8226 leukemia) [µM] | TGI (RPMI-8226 leukemia) [µM] | GI50 (SN12C renal) [µM] | TGI (SN12C renal) [µM] | GI50 (SNB-19 CNS) [µM] | TGI (SNB-19 CNS) [µM] | GI50 (EKVX NSCLC) [µM] | TGI (EKVX NSCLC) [µM]
1 | Cn1cc(C2=C(c3ccc4ccccc4c3)C(=O)NC2=O)c2ccccc21 | > 21.8 | > 25 | > 21.4 | > 25 | 12.5 | > 25 | > 21 | > 25 | > 22.1 | > 25 | > 25 | > 25 | > 23.8 | > 25 | > 25 | > 25 | > 25 | > 25 |  | 
2 | Ic1ccc(Nc2nc3nonc3nc2Nc2ccc(I)cc2)cc1 | 0.282 | > 100 | 0.175 | 0.545 | 0.293 | > 100 |  |  | 0.167 | 0.604 | 0.156 | > 32 | 0.107 | 0.574 |  |  | 0.324 | > 100 | 0.245 | > 100
3 | CNCCCn1cc(C2=C(c3cn(C)c4ccccc34)C(=O)NC2=O)c2ccccc21 | 4.09 | 10.8 | 5.55 | 13.5 | 3.89 | 8.39 | 4.17 | 7.98 | 5.37 | 10.4 | 4.53 | 9.19 | 5.12 | 11.7 | 4.86 | 18.4 | 6.29 | 22.7 |  | 
4 | O=C(Nc1ccc(OS(=O)(=O)c2ccccc2)cc1)C12CC3CC(CC(C3)C1)C2 | 6.9 | > 100 | 2.68 | > 100 | 2.1 | > 100 | 7.2 | > 100 | > 100 | > 100 | 6.1 | > 100 | 2.15 | > 100 | > 100 | > 100 | > 100 | > 100 |  | 
5 | O=Cc1cc2c(cc1-c1c(C=O)ccc3c1OCO3)OCO2 |  | > 10 |  | > 10 |  | > 10 |  | > 10 |  | > 10 |  |  |  | > 10 |  | > 10 |  | > 10 |  | 
6 | C[C@H]1c2cccc(O)c2C(O)=C2C(=O)[C@]3(O)C(O)=C(C(N)=O)C(=O)[C@@H](N(C)C)[C@@H]3[C@@H](O)[C@@H]21 | 3.22 | 13.2 | 2.3 | 6.56 | 3.37 | 11.5 | 3.28 | 12.6 | 2.76 | 8.57 | 2.96 | 10.2 |  |  | 3.06 | 14.5 | 3.02 | 14.5 | 3.31 | 15.5
7 | COc1ccc(NC(=O)CCc2cc(-c3ccc(O)c(OC)c3)nc(NC#N)n2)cc1 |  | > 100 |  | > 100 |  | > 100 |  | > 100 |  | > 100 |  | > 100 |  |  |  | > 100 |  | > 100 |  | > 100
8 | COC(=O)C1=C(c2ccc3c(c2)OCO3)O[C@H](c2cc(OC)c(OC)c(OC)c2)[C@H]1COC(C)=O |  | 47.8 |  | 32.5 |  | 50 |  | 13.6 |  | 92.5 |  | > 100 |  | > 100 |  | 37.9 |  |  |  | > 100
9 | C=C(C)[C@@]12OC3(/C=C/C=C/CCCCC)O[C@@H]1[C@@H]1[C@@H]4O[C@]4(CO)[C@@H](O)[C@]4(O)C(=O)C(C)=C[C@H]4[C@@]1(O3)[C@H](C)[C@H]2OC(=O)c1ccccc1 | < 0.01 | 2.04 |  |  | 1.61 | 2.99 | 1.57 | 5.38 | 11.3 | 26.9 | < 0.01 | 2.29 | 3.35 | > 23.2 | 1.49 | 2.83 | 1.92 | 3.91 | 1.28 | 2.86
10 | CC1OC2CC(=O)OC2C2=C1C(=O)c1c(O)cccc1C2=O (stereo not given) | 0.831 | 2.68 |  |  | 0.176 | 0.392 | 0.0611 | 0.193 | 0.0235 | 0.0695 | 0.415 | 1.75 | 0.0587 | 0.602 | 0.116 | 0.259 | 1.08 | 2.48 | 0.407 | 1.59
11 | Clc1ccc2c(NCCCNc3nccc(Nc4ccc(Br)cc4)n3)ccnc2c1 | 1.78 | 3.52 | 2.13 | 4.94 | 1.82 | 3.36 | 1.71 | 3.5 |  |  | 1.76 | 3.44 | 1.97 | 4.45 | 1.69 | 3.37 | 1.75 | 3.32 |  | 
12 | O=C1OC(c2ccccc2)=N/C1=C/C=C/c1ccco1 |  | > 100 |  |  |  | > 100 |  | > 100 |  | > 100 |  |  |  |  |  | > 100 |  | > 100 |  | > 100
13 | NC(=NCCCOc1ccc(Cl)cc1)Nc1ccc(C(F)(F)F)cc1 | 2.78 | 12.6 | 1.59 | 3.77 |  |  | 1.69 | 3.46 | 1.93 | 4.01 | 2 | 4.97 | 1.75 | 4.32 | 3.07 | 14.2 | 2.79 | 19.5 | 2.51 | 8.65
14 | Cc1ccc(SC(C)/C=C/NNC2=NC(c3ccccc3)C(c3ccccc3)=NN2)cc1 (stereo not given) |  | > 100 |  | 42.5 |  | > 100 |  | > 100 |  | > 100 |  | > 100 |  | > 100 |  | > 100 |  |  |  | > 100
15 | S=C(N/N=C/c1ccco1)NC12CC3CC(CC(C3)C1)C2 |  | > 100 |  |  |  | > 100 |  | > 100 |  | > 100 |  | > 100 |  |  |  | > 100 |  | > 100 |  | > 100
16 | CCCCc1c(OC)cc(O)c2c1C(=O)c1[nH]c(C(=O)O)c(O)c(=O)c1C2=O |  | > 100 |  | > 100 |  | > 100 |  | 34.3 |  |  |  | > 100 |  | > 100 |  | > 100 |  | 15.1 |  | > 100
17 | O=C1c2ccccc2C(=O)C1(Cl)C1(S(=O)(=O)O)c2ccccc2-c2ccccc21 |  | > 100 |  | > 100 |  | > 100 |  | > 100 |  | > 100 |  | > 100 |  | > 100 |  | > 100 |  |  |  | 
